Results taken from article PMC8213057, “Targeting ALK2: An Open Science Approach to Developing Therapeutics for the Treatment of Diffuse Intrinsic Pontine Glioma” (Journal of Medicinal Chemistry, 2020).
Several values for one entry are separate records, joined by “and”; a condition that tells them apart may be missing. Identical values can stand only once.

Key:
IKKe/IKBKE = target: T1, IKKe/IKBKE (Homo sapiens, UniProt Q14164); experiment: biochemical; conditions: read-out: % enzyme activity, 1 μM; Run 1, Run 2
T1 sequence (Q14164 1-716): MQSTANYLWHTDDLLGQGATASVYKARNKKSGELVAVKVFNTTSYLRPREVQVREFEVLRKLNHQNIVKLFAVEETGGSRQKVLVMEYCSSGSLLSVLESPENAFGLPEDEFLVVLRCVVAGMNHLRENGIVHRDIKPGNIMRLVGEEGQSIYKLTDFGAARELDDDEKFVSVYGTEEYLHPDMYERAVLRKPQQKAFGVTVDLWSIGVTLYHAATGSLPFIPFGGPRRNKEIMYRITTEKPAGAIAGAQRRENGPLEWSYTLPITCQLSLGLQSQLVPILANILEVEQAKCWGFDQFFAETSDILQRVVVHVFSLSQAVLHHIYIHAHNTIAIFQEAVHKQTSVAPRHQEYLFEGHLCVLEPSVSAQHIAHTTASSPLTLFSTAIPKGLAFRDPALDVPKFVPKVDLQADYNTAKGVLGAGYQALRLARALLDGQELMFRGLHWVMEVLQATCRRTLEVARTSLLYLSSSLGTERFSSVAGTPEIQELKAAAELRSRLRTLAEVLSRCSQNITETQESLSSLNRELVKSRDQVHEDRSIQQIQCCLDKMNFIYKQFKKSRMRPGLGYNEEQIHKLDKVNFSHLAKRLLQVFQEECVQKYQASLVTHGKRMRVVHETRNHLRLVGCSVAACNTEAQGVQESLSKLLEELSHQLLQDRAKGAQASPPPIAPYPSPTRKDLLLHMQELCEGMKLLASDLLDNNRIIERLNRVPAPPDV

ERK1 = ERK1 (Homo sapiens, UniProt P27361); experiment: biochemical; conditions: read-out: % enzyme activity, 1 μM; Run 1, Run 2
HIPK1 = HIPK1 (Homo sapiens, UniProt Q86Z02); experiment: biochemical; conditions: read-out: % enzyme activity, 1 μM; Run 1, Run 2
BMX/ETK = target: T2, BMX/ETK (Homo sapiens, UniProt P51813); experiment: biochemical; conditions: read-out: % enzyme activity, 1 μM; Run 1, Run 2
T2 sequence (P51813 1-675): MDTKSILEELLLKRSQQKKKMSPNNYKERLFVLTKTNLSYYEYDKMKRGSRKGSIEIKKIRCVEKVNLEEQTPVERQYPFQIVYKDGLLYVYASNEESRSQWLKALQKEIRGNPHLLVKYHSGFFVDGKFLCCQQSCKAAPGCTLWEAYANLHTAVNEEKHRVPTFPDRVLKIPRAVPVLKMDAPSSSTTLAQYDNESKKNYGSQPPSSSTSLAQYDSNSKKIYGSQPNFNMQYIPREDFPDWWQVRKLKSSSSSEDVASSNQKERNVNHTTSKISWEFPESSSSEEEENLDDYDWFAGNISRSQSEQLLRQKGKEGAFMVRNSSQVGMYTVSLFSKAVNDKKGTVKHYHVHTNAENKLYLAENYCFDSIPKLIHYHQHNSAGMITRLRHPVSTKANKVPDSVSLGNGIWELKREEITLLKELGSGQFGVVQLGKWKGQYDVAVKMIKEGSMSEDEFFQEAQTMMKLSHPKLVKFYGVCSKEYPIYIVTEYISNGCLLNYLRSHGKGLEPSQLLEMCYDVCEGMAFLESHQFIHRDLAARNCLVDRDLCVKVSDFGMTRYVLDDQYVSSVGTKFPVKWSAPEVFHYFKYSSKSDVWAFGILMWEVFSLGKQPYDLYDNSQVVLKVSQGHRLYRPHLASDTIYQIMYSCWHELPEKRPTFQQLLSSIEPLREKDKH

CDK19/cyclin C = CDK19/cyclin C (Homo sapiens, UniProt Q9BWU1); experiment: biochemical; conditions: read-out: % enzyme activity, 1 μM; Run 1, Run 2
LKB1 = target: T3, LKB1 (Homo sapiens, UniProt Q15831); experiment: biochemical; conditions: read-out: % enzyme activity, 1 μM; Run 1, Run 2
T3 sequence (Q15831 1-433): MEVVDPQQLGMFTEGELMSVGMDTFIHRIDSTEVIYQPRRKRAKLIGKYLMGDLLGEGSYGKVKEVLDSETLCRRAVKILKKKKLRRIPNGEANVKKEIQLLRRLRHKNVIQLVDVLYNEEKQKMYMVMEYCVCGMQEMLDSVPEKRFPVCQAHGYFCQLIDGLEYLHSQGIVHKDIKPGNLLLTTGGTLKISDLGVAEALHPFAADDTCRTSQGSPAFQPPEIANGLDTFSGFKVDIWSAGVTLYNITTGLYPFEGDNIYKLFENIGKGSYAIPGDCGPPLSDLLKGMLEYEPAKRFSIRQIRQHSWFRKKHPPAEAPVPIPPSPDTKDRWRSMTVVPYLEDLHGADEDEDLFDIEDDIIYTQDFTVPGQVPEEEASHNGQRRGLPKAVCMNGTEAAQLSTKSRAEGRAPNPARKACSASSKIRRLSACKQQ
T3 sequence (Q7RTN6 1-431 partner): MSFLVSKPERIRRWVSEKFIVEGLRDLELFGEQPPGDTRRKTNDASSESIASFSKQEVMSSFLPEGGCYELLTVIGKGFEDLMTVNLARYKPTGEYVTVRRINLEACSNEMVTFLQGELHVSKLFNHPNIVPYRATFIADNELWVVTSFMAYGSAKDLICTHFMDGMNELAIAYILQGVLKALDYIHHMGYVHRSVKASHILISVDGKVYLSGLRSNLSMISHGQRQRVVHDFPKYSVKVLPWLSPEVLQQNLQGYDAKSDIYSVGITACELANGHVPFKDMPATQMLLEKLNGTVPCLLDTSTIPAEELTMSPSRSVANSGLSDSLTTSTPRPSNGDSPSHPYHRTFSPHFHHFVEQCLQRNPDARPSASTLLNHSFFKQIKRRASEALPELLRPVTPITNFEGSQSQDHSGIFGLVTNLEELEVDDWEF
T3 sequence (Q9Y376 1-341 partner): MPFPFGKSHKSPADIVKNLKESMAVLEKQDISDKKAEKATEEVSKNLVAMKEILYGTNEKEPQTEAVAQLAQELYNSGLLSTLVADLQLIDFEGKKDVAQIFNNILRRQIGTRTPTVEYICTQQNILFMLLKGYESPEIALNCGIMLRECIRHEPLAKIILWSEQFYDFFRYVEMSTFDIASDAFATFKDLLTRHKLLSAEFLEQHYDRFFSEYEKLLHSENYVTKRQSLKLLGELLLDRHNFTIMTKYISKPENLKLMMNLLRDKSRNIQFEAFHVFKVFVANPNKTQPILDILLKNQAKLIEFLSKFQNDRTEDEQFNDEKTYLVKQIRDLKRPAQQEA

PAK3 = PAK3 (Homo sapiens, UniProt O75914); conditions: 1 μM; Run 1, Run 2
PKN1/PRK1 = PKN1/PRK1 (Homo sapiens, UniProt Q16512); experiment: biochemical; conditions: read-out: % enzyme activity, 1 μM; Run 1, Run 2
Sequence of PKN1/PRK1 (Q16512 whole entry): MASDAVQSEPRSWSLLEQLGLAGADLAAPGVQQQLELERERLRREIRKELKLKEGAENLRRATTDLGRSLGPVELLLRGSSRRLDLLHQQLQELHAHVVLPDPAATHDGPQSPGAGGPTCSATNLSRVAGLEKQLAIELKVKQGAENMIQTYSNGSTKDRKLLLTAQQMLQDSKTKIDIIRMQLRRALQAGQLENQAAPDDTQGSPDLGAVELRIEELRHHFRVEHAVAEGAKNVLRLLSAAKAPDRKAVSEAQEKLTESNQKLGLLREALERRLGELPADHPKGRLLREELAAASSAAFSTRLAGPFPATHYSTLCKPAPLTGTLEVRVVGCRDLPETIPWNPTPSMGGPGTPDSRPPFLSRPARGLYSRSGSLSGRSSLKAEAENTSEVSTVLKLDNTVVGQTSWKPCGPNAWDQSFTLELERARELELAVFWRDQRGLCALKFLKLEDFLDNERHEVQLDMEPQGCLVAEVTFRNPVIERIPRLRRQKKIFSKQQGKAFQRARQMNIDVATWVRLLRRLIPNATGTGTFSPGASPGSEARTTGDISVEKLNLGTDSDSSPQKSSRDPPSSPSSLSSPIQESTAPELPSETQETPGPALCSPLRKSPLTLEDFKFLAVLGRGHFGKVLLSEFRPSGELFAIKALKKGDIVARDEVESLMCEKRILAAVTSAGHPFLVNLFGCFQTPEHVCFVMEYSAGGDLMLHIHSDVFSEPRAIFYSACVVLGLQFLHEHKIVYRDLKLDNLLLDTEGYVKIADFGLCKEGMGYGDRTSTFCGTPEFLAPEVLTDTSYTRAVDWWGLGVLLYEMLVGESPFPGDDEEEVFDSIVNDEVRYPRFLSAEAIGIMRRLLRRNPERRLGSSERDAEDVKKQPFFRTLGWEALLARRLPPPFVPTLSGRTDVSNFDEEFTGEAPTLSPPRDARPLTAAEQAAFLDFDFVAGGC

Sequence of PAK3 (O75914 whole entry): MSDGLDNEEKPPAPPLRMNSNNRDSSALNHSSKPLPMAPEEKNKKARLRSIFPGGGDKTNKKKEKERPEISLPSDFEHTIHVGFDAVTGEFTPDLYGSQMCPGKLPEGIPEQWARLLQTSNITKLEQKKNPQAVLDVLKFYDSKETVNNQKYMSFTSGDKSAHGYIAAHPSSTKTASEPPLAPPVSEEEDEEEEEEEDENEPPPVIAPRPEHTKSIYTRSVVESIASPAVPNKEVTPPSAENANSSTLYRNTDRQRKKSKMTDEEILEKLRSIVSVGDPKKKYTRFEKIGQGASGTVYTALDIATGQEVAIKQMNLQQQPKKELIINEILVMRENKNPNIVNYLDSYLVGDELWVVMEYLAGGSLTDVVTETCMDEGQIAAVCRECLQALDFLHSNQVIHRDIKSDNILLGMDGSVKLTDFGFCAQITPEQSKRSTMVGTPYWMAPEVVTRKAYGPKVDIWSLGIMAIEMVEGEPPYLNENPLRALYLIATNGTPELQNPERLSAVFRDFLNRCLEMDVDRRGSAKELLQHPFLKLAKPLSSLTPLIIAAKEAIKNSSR
Sequence of HIPK1 (Q86Z02 whole entry): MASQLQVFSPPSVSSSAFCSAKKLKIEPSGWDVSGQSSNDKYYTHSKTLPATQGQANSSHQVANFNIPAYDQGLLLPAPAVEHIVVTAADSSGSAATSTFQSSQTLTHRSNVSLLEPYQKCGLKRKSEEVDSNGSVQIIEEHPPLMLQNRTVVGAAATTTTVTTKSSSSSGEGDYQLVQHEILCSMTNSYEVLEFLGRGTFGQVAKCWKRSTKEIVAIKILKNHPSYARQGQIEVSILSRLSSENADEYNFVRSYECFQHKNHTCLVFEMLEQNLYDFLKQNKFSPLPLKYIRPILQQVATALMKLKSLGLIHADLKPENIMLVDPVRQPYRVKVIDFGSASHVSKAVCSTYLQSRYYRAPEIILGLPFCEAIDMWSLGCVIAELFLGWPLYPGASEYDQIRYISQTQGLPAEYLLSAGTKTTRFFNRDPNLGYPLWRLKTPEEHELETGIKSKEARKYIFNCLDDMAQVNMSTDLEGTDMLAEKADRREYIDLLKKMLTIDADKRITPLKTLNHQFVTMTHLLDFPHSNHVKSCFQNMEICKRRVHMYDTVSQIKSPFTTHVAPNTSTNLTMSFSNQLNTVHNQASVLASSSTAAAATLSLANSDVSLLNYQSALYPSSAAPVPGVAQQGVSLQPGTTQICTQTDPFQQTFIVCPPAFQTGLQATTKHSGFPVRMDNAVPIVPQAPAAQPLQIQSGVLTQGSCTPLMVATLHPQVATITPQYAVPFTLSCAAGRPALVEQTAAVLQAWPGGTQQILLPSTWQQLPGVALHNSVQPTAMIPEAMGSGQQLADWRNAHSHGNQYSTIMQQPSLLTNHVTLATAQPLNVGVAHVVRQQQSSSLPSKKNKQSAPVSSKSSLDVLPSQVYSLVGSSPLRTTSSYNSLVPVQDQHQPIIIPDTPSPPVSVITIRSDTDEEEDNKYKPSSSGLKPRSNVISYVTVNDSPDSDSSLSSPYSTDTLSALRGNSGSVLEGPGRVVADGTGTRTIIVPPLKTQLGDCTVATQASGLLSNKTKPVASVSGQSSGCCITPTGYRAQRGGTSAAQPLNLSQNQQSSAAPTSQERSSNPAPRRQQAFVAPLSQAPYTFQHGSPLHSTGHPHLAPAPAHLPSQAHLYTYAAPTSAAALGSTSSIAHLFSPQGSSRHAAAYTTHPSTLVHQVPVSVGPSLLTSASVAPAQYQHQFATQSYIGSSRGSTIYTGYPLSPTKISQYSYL
Sequence of CDK19/cyclin C (Q9BWU1 whole entry): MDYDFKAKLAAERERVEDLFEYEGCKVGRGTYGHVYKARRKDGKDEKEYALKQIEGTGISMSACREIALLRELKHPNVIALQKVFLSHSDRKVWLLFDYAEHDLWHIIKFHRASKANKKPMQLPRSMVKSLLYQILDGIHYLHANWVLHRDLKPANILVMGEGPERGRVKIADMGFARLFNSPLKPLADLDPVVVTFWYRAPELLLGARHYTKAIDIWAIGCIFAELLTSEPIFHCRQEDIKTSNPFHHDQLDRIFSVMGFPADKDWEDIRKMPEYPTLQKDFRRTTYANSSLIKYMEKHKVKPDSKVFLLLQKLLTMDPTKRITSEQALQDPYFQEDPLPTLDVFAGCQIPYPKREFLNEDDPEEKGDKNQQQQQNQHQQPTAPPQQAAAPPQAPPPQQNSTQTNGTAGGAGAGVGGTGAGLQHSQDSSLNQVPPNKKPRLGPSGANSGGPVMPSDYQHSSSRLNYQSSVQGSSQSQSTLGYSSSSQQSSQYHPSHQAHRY
Sequence of CDK19/cyclin C (P24863 whole entry partner): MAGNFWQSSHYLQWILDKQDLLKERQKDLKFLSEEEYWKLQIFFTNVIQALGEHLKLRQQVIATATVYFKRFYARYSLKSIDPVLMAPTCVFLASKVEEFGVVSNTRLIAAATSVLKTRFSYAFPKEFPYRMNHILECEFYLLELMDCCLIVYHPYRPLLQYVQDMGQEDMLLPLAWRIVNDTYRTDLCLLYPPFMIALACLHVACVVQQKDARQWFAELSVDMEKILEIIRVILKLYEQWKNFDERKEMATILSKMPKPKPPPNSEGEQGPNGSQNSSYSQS
Sequence of ERK1 (P27361 whole entry): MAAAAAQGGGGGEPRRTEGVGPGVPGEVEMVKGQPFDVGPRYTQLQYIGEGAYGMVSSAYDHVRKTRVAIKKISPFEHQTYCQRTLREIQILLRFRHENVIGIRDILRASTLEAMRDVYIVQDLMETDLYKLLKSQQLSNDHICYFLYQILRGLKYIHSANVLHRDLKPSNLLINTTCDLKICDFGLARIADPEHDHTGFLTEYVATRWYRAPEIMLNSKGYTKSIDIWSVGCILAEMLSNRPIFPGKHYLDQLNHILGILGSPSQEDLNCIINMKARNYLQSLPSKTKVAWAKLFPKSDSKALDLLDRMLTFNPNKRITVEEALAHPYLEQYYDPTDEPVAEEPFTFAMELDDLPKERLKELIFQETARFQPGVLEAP

COc1cc(-c2cncc(-c3ccc(N4C[C@@H](C)N(C)[C@@H](C)C4)cc3)c2C)cc(F)c1C(N)=O [Compound 26c, 2-Fluoro-6-methoxy-4-(4-methyl-5-(4-((3R,5S)-3,4,5-trimethylpiperazin-1-yl)phenyl)pyridin-3-yl)benzamide]
remaining activity at 1 µM (IKKe/IKBKE): 96.7%
CYP inhibition (CYP1A2): > 50 µM
remaining activity at 1 µM (ERK1): 95.3%
remaining activity at 1 µM (HIPK1): 99.9%
remaining activity at 1 µM (BMX/ETK): 102%
remaining activity at 1 µM (CDK19/cyclin C): 87.1%
remaining activity at 1 µM (LKB1): 96.1%
% enzyme activity at 1 μM (NLK): 50.4% and 47.7%
% enzyme activity (PAK3): 124.21%
remaining activity at 1 µM (PKN1/PRK1): 98.7%

COc1cc(-c2cncc(-c3ccc(N4CCN(C)CC4)cc3)c2C)cc(F)c1C(N)=O [Compound 26a, 2-Fluoro-6-methoxy-4-(4-methyl-5-(4-(4-methylpiperazin-1-yl)phenyl)pyridin-3-yl)benzamide]
remaining activity at 1 µM (IKKe/IKBKE): 91.1%
CYP inhibition (CYP1A2): > 50 µM
remaining activity at 1 µM (ERK1): 97.3%
remaining activity at 1 µM (HIPK1): 106%
remaining activity at 1 µM (BMX/ETK): 103%
remaining activity at 1 µM (CDK19/cyclin C): 79.1%
remaining activity at 1 µM (LKB1): 80.7%
% enzyme activity at 1 μM (NLK): 22% and 20.8%
% enzyme activity (PAK3): 87.14%
remaining activity at 1 µM (PKN1/PRK1): 98.5%
